# Test results: patent US6872690B2, “Herbicidal 2-alkynyl-pyri (mi) dines” (WYETH, priority 2001, dated 2005)
# Experiments:
# Assay type in all cases: in vivo
# Abutilon theophrasti [1] = assay: Pre-emergence test; details: 3 weeks after treatment
# Procedure: (§1) To evaluate their herbicidal activity, compounds according to the invention are tested using a representative range of plants:
# (§2) The pre-emergence tests involve spraying a liquid formulation of the compound onto the soil in which the seeds of the plant species mentioned above has recently been sown.
# (§3) The soil used in the tests is a prepared horticultural loam. The formulations used in the tests are prepared from solutions of the test compounds in acetone containing 0.4% by weight of an alkyl-phenol/ethylene oxide condensate available under the trade mark TRITON X-155. These acetone solutions are diluted with water and the resulting formulations applied at dosage levels corresponding to 0.013 kg, 0.025 kg, 0.100 kg or 0.400 kg of active material per hectare in a volume equivalent to 900 litres per hectare. In these tests untreated sown soil are used as controls. From 2 to 4 weeks after treatment, the tests are terminated and each pot is examined and rated according to the rating system set forth below: […]
# Alopecurus myosuroides [2] = assay: Pre-emergence test; details: 3 weeks after treatment
# Procedure: as §1, §2, §3
# Cassia obtusifolia [3] = assay: Pre-emergence test; details: 3 weeks after treatment
# Procedure: as §1, §2, §3
# Digitaria sanguinalis [4] = assay: Pre-emergence test; details: 3 weeks after treatment
# Procedure: as §1, §2, §3
# Echinochloa crus-galli [5] = assay: Pre-emergence test; details: 3 weeks after treatment
# Procedure: as §1, §2, §3
# Galium aparine [6] = assay: Pre-emergence test; details: 3 weeks after treatment
# Procedure: as §1, §2, §3
# Glycine max [7] = assay: Pre-emergence test; details: 3 weeks after treatment
# Procedure: as §1, §2, §3
# Ipomoea hederacea [8] = assay: Pre-emergence test; details: 3 weeks after treatment
# Procedure: as §1, §2, §3
# Lamium purpureum = assay: Pre-emergence test; details: 3 weeks after treatment
# Procedure: as §1, §2, §3
# Matricaria inodora [9] = assay: Pre-emergence test; details: 3 weeks after treatment
# Procedure: as §1, §2, §3
# Orysa sativa [10] = assay: Pre-emergence test; details: 3 weeks after treatment
# Procedure: as §1, §2, §3
# Setaria viridis [11] = assay: Pre-emergence test; details: 3 weeks after treatment
# Procedure: as §1, §2, §3
# Stellaria media [12] = assay: Pre-emergence test; details: 3 weeks after treatment
# Procedure: as §1, §2, §3
# Triticum aestivum [13] = assay: Pre-emergence test; details: 3 weeks after treatment
# Procedure: as §1, §2, §3
# Zea mays [14] = assay: Pre-emergence test; details: 3 weeks after treatment
# Procedure: as §1, §2, §3
# Abutilon theophrasti [15] = assay: Post-emergence herbicidal activity test; details: 2-4 weeks after treatment
# Procedure: as §1
# (§4) These acetone solutions are diluted with water and the resulting formulations applied at dosage levels equivalent of about 0.025 to 0. 4 kg per hectare of test compound per pot. After spraying the plants are placed on greenhouse benches and are cared for in the usual manner, commensurate with conventional greenhouse practices. From 2 to 4 weeks after treatment, the seedling plants are examined and rated according to the rating system provided above.
# Alopecurus myosuroides [16] = assay: Post-emergence herbicidal activity test; details: 2-4 weeks after treatment
# Procedure: as §1, §4
# Cassia obtusifolia [17] = assay: Post-emergence herbicidal activity test; details: 2-4 weeks after treatment
# Procedure: as §1, §4
# Digitaria sanguinalis [18] = assay: Post-emergence herbicidal activity test; details: 2-4 weeks after treatment
# Procedure: as §1, §4
# Echinochloa crus-galli [19] = assay: Post-emergence herbicidal activity test; details: 2-4 weeks after treatment
# Procedure: as §1, §4
# Galium aparine [20] = assay: Post-emergence herbicidal activity test; details: 2-4 weeks after treatment
# Procedure: as §1, §4
# Glycine max [21] = assay: Post-emergence herbicidal activity test; details: 2-4 weeks after treatment
# Procedure: as §1, §4
# Ipomoea hederacea [22] = assay: Post-emergence herbicidal activity test; details: 2-4 weeks after treatment
# Procedure: as §1, §4
# Matricaria inodora [23] = assay: Post-emergence herbicidal activity test; details: 2-4 weeks after treatment
# Procedure: as §1, §4
# Orysa sativa [24] = assay: Post-emergence herbicidal activity test; details: 2-4 weeks after treatment
# Procedure: as §1, §4
# Setaria viridis [25] = assay: Post-emergence herbicidal activity test; details: 2-4 weeks after treatment
# Procedure: as §1, §4
# Stellaria media [26] = assay: Post-emergence herbicidal activity test; details: 2-4 weeks after treatment
# Procedure: as §1, §4
# Triticum aestivum [27] = assay: Post-emergence herbicidal activity test; details: 2-4 weeks after treatment
# Procedure: as §1, §4
# Zea mays [28] = assay: Post-emergence herbicidal activity test; details: 2-4 weeks after treatment
# Procedure: as §1, §4
structure (smiles),measurement,setting,value
COc1cc(C#Cc2ccccc2)nc(Oc2cc(C(F)(F)F)nn2C)c1 [Example 27],Assessment (pre-emergence application) ABUTH,Abutilon theophrasti [1]; 0.025 kg/ha,5 (5-Definite injury)
same,Assessment (pre-emergence application) ABUTH,Abutilon theophrasti [1]; 0.100 kg/ha,5 (5-Definite injury)
same,Assessment (pre-emergence application) ABUTH,Abutilon theophrasti [1]; 0.400 kg/ha,8 (8-Approaching complete kill)
same,Assessment (pre-emergence application) ALOMY,Alopecurus myosuroides [2]; 0.025 kg/ha,2 (2-Slight effect)
same,Assessment (pre-emergence application) ALOMY,Alopecurus myosuroides [2]; 0.100 kg/ha,3 (3-Moderate effect)
same,Assessment (pre-emergence application) ALOMY,Alopecurus myosuroides [2]; 0.400 kg/ha,6 (6-Herbicidal effect)
same,Assessment (pre-emergence application) CASOB,Cassia obtusifolia [3]; 0.025 kg/ha,7 (7-Good herbicidal effect)
same,Assessment (pre-emergence application) CASOB,Cassia obtusifolia [3]; 0.400 kg/ha,8 (8-Approaching complete kill)
same,Assessment (pre-emergence application) DIGSA,Digitaria sanguinalis [4]; 0.025 kg/ha,6 (6-Herbicidal effect)
same,Assessment (pre-emergence application) DIGSA,Digitaria sanguinalis [4]; 0.100 kg/ha,6 (6-Herbicidal effect)
same,Assessment (pre-emergence application) DIGSA,Digitaria sanguinalis [4]; 0.400 kg/ha,8 (8-Approaching complete kill)
same,Assessment (pre-emergence application) ECHCG,Echinochloa crus-galli [5]; 0.025 kg/ha,3 (3-Moderate effect)
same,Assessment (pre-emergence application) ECHCG,Echinochloa crus-galli [5]; 0.100 kg/ha,4 (4-Injury)
same,Assessment (pre-emergence application) ECHCG,Echinochloa crus-galli [5]; 0.400 kg/ha,7 (7-Good herbicidal effect)
same,Assessment (pre-emergence application) GALAP,Galium aparine [6]; 0.025 kg/ha,1 (1-Trace effect)
same,Assessment (pre-emergence application) GALAP,Galium aparine [6]; 0.100 kg/ha,2 (2-Slight effect)
same,Assessment (pre-emergence application) GALAP,Galium aparine [6]; 0.400 kg/ha,6 (6-Herbicidal effect)
same,Assessment (pre-emergence application) GLXMA,Glycine max [7]; 0.025 kg/ha,2 (2-Slight effect)
same,Assessment (pre-emergence application) GLXMA,Glycine max [7]; 0.100 kg/ha,2 (2-Slight effect)
same,Assessment (pre-emergence application) GLXMA,Glycine max [7]; 0.400 kg/ha,3 (3-Moderate effect)
same,Assessment (pre-emergence application) IPOHE,Ipomoea hederacea [8]; 0.025 kg/ha,3 (3-Moderate effect)
same,Assessment (pre-emergence application) IPOHE,Ipomoea hederacea [8]; 0.100 kg/ha,4 (4-Injury)
same,Assessment (pre-emergence application) IPOHE,Ipomoea hederacea [8]; 0.400 kg/ha,6 (6-Herbicidal effect)
same,Assessment (pre-emergence application) LAMPU,Lamium purpureum; 0.025 kg/ha,8 (8-Approaching complete kill)
same,Assessment (pre-emergence application) LAMPU,Lamium purpureum; 0.100 kg/ha,8 (8-Approaching complete kill)
same,Assessment (pre-emergence application) LAMPU,Lamium purpureum; 0.400 kg/ha,9 (9-Complete kill)
same,Assessment (pre-emergence application) MATIN,Matricaria inodora [9]; 0.025 kg/ha,8 (8-Approaching complete kill)
same,Assessment (pre-emergence application) MATIN,Matricaria inodora [9]; 0.100 kg/ha,8 (8-Approaching complete kill)
same,Assessment (pre-emergence application) MATIN,Matricaria inodora [9]; 0.400 kg/ha,8 (8-Approaching complete kill)
same,Assessment (pre-emergence application) ORYSA,Orysa sativa [10]; 0.025 kg/ha,0 (0-No effect)
same,Assessment (pre-emergence application) ORYSA,Orysa sativa [10]; 0.100 kg/ha,1 (1-Trace effect)
same,Assessment (pre-emergence application) ORYSA,Orysa sativa [10]; 0.400 kg/ha,1 (1-Trace effect)
same,Assessment (pre-emergence application) SETVI,Setaria viridis [11]; 0.025 kg/ha,5 (5-Definite injury)
same,Assessment (pre-emergence application) SETVI,Setaria viridis [11]; 0.100 kg/ha,8 (8-Approaching complete kill)
same,Assessment (pre-emergence application) SETVI,Setaria viridis [11]; 0.400 kg/ha,9 (9-Complete kill)
same,Assessment (pre-emergence application) STEME,Stellaria media [12]; 0.025 kg/ha,9 (9-Complete kill)
same,Assessment (pre-emergence application) STEME,Stellaria media [12]; 0.100 kg/ha,9 (9-Complete kill)
same,Assessment (pre-emergence application) STEME,Stellaria media [12]; 0.400 kg/ha,9 (9-Complete kill)
same,Assessment (pre-emergence application) TRZWA,Triticum aestivum [13]; 0.025 kg/ha,1 (1-Trace effect)
same,Assessment (pre-emergence application) TRZWA,Triticum aestivum [13]; 0.100 kg/ha,2 (2-Slight effect)
same,Assessment (pre-emergence application) TRZWA,Triticum aestivum [13]; 0.400 kg/ha,3 (3-Moderate effect)
same,Assessment (pre-emergence application) ZEAMX,Zea mays [14]; 0.025 kg/ha,1 (1-Trace effect)
same,Assessment (pre-emergence application) ZEAMX,Zea mays [14]; 0.100 kg/ha,2 (2-Slight effect)
same,Assessment (pre-emergence application) ZEAMX,Zea mays [14]; 0.400 kg/ha,3 (3-Moderate effect)
same,Post-emergence application ABUTH,Abutilon theophrasti [15]; 0.100 kg/ha,5 (5-Definite injury)
same,Post-emergence application ABUTH,Abutilon theophrasti [15]; 0.400 kg/ha,6 (6-Herbicidal effect)
same,Post-emergence application ALOMY,Alopecurus myosuroides [16]; 0.100 kg/ha,6 (6-Herbicidal effect)
same,Post-emergence application ALOMY,Alopecurus myosuroides [16]; 0.400 kg/ha,8 (8-Approaching complete kill)
same,Post-emergence application CASOB,Cassia obtusifolia [17]; 0.100 kg/ha,7 (7-Good herbicidal effect)
same,Post-emergence application CASOB,Cassia obtusifolia [17]; 0.400 kg/ha,7 (7-Good herbicidal effect)
same,Post-emergence application DIGSA,Digitaria sanguinalis [18]; 0.100 kg/ha,4 (4-Injury)
same,Post-emergence application DIGSA,Digitaria sanguinalis [18]; 0.400 kg/ha,6 (6-Herbicidal effect)
same,Post-emergence application ECHCG,Echinochloa crus-galli [19]; 0.100 kg/ha,5 (5-Definite injury)
same,Post-emergence application ECHCG,Echinochloa crus-galli [19]; 0.400 kg/ha,7 (7-Good herbicidal effect)
same,Post-emergence application GALAP,Galium aparine [20]; 0.100 kg/ha,6 (6-Herbicidal effect)
same,Post-emergence application GALAP,Galium aparine [20]; 0.400 kg/ha,7 (7-Good herbicidal effect)
same,Post-emergence application GLXMA,Glycine max [21]; 0.100 kg/ha,4 (4-Injury)
same,Post-emergence application GLXMA,Glycine max [21]; 0.400 kg/ha,6 (6-Herbicidal effect)
same,Post-emergence application IPOHE,Ipomoea hederacea [22]; 0.100 kg/ha,6 (6-Herbicidal effect)
same,Post-emergence application IPOHE,Ipomoea hederacea [22]; 0.400 kg/ha,6 (6-Herbicidal effect)
same,Post-emergence application MATIN,Matricaria inodora [23]; 0.100 kg/ha,5 (5-Definite injury)
same,Post-emergence application MATIN,Matricaria inodora [23]; 0.400 kg/ha,7 (7-Good herbicidal effect)
same,Post-emergence application ORYSA,Orysa sativa [24]; 0.100 kg/ha,3 (3-Moderate effect)
same,Post-emergence application ORYSA,Orysa sativa [24]; 0.400 kg/ha,3 (3-Moderate effect)
same,Post-emergence application SETVI,Setaria viridis [25]; 0.100 kg/ha,7 (7-Good herbicidal effect)
same,Post-emergence application SETVI,Setaria viridis [25]; 0.400 kg/ha,8 (8-Approaching complete kill)
same,Post-emergence application STEME,Stellaria media [26]; 0.100 kg/ha,6 (6-Herbicidal effect)
same,Post-emergence application STEME,Stellaria media [26]; 0.400 kg/ha,8 (8-Approaching complete kill)
same,Post-emergence application TRZWA,Triticum aestivum [27]; 0.100 kg/ha,2 (2-Slight effect)
same,Post-emergence application TRZWA,Triticum aestivum [27]; 0.400 kg/ha,3 (3-Moderate effect)
same,Post-emergence application ZEAMX,Zea mays [28]; 0.100 kg/ha,3 (3-Moderate effect)
same,Post-emergence application ZEAMX,Zea mays [28]; 0.400 kg/ha,3 (3-Moderate effect)
